What is called IC50 is the point on the concentration scale where inhibition reaches its midpoint.

Read-outs that look alike come from different tables or passages of the source.

One series has as its target human orexin-1 receptor (Homo sapiens (Human), UniProt O43613). The series can be described thus: In vitro intracellular calcium measurements (FLIPR), antagonistic activity on orexin-1 receptor. In kind it is cell-based. The following applies: read-out: IC50 OX1. In short, it runs like this:
(§1)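 CHO cells expressing human orexin-1 or orexin-2 receptor were seeded overnight, preincubated with antagonist for 120 min, then stimulated with agonist in a FLIPR Tetra.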

For the next series, the target named is human orexin-2 receptor (Homo sapiens (Human), UniProt O43614). The series can be described thus: In vitro intracellular calcium measurements (FLIPR), antagonistic activity on orexin-2 receptor. In kind it is cell-based. The following applies: read-out: IC50 OX2. In short, it runs like this:
as §1
Background: Calcium assays in cells follow changes in intracellular calcium, usually with a dye or a luminescent sensor.

A further series addresses CYP3A4 (Homo sapiens (Human), UniProt P08684). The series can be described thus: CYP3A4 inhibition assay (human liver microsomes, testosterone 6β-hydroxylation). The conditions noted are these: read-out: CYP3A4 IC50, 40 μM testosterone. (In general: Liver microsomes are a subcellular fraction often used to study metabolism.)
Where [1] appears, read: CHO cells expressing human orexin-1 receptor, FLIPR, 3 nM orexin-A agonist, 120 min antagonist incubation, geometric mean if determined several times.
Where [2] appears, read: CHO cells expressing human orexin-2 receptor, FLIPR, 3 nM orexin-A agonist, 120 min antagonist incubation, geometric mean if determined several times.

Sequence of CYP3A4 (P08684 whole entry): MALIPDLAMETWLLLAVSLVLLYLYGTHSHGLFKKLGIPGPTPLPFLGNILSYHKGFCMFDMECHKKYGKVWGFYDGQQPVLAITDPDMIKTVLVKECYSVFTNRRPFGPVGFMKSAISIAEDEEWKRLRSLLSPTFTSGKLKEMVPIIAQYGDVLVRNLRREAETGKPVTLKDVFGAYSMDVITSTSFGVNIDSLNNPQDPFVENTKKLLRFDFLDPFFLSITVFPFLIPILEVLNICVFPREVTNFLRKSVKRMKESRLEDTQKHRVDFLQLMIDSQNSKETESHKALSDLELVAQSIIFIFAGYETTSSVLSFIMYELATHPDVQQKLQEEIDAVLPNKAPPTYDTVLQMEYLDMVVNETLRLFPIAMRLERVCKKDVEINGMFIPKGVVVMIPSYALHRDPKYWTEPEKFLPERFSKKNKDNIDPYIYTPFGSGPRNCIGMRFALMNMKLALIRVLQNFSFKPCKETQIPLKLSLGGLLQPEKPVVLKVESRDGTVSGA
Sequence of human orexin-1 receptor (O43613 whole entry): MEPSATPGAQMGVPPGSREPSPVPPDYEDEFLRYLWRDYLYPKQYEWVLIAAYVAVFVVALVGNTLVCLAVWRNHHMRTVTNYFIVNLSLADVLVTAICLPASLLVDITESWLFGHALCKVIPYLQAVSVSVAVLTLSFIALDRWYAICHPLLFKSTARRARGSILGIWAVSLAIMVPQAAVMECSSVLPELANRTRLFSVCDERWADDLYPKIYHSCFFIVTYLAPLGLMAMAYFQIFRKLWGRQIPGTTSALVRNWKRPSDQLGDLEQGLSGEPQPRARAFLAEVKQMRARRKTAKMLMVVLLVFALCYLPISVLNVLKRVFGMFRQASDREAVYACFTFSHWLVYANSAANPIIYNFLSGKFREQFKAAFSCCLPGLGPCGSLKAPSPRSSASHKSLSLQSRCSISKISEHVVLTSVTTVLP
Sequence of human orexin-2 receptor (O43614 whole entry): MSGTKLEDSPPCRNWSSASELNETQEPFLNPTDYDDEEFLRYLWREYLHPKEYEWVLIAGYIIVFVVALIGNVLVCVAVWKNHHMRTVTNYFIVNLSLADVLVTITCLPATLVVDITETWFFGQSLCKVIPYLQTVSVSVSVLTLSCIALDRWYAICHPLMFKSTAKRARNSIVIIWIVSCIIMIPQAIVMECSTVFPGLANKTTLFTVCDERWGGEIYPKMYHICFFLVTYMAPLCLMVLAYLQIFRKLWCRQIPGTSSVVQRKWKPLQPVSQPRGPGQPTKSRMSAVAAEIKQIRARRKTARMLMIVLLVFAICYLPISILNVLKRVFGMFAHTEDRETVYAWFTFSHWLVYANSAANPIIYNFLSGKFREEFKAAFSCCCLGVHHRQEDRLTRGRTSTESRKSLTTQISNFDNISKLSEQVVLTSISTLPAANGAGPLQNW
Method for CYP3A4: The CYP3A4 inhibition assay was performed using human liver microsomes and testosterone 6β-hydroxylation as a P450 isoform-specific marker. In a total volume of 150 μL, ^14C-testosterone at a final concentration of 40 μM in a 100 mM phosphate buffer (pH 7.4) was incubated in a 96-well plate with 0.3 mg/mL of human liver microsomes in an Eppendorf thermomixer at 37° C. and 400 rpm. […] The reaction was initiated by addition of 15 μL of the NADPH-regenerating system containing the glucose-6-phosphate dehydrogenase and terminated after 7 min with a 75 μL-aliquot of methanol. After centrifugation at 465 g and 4° C. for 20 min, a 50 μL-aliquot of the supernatant was submitted to HPLC according to the method described below. The total concentration of DMSO in the assay including controls without inhibitor was 1%.
Nicardipine was run in parallel as a reference inhibitor of CYP3A4 activity at final concentrations of 0, 0.1, 0.5, 1.0, 5.0, 10, 25, and 50 μM. Stock solutions thereof were prepared in DMSO.
The chromatographic separation of testosterone and 6β-hydroxytestosterone was achieved on a Phenomenex Luna C18(2) column (5 μm, 2.0×10 mm) at RT with a flow rate of 0.6 mL/min. Mobile phases consisted of 1% aqueous formic acid (phase A) and methanol (phase B) using a gradient method with 0.9 min total run time.
The quantification of 6β-hydroxytestosterone was carried out using a quadrupole mass spectrometer equipped with an ionspray interface operating in positive ion mode. The parameters of the mass detector were set as follows: capillary voltage 5 kV, auxiliary gas 40 psi, collision gas 3 mTorr, and transfer capillary temperature 420° C.

Turning to `Cc1ccc(C(=O)N2CCOC[C@H]2Cc2cc(-c3ncon3)ccc2F)c(-n2nccn2)c1` [Example 175, [(R)-3-(2-Fluoro-5-[1,2,4]oxadiazol-3-yl-benzyl)-morpholin-4-yl]-(4-methyl-2-[1,2,3]triazol-2-yl-phenyl)-methanone], the IC50 at human orexin-1 receptor (setting [1]) turned out to be 3 nM; at human orexin-2 receptor (setting [2]) it was 359 nM; on CYP3A4, 35000 nM.

`COc1ccc(C[C@@H]2COCCN2C(=O)c2ccccc2-n2nccn2)cc1-n1cccn1` [Example 14, [(R)-3-(4-Methoxy-3-pyrazol-1-yl-benzyl)-morpholin-4-yl]-(2-[1,2,3]triazol-2-yl-phenyl)-methanone]: the concentration for half-maximal inhibition (IC50) at human orexin-1 receptor (setting [1]) was 3 nM; on human orexin-2 receptor (setting [2]) it was 905 nM; at CYP3A4 it was > 50000 nM.

Take `COc1ccc(C[C@@H]2COCCN2C(=O)c2ccccc2-n2nccn2)cc1-c1ccccn1` [Example 3, [(R)-3-(4-Methoxy-3-pyridin-2-yl-benzyl)-morpholin-4-yl]-(2-[1,2,3]triazol-2-yl-phenyl)-methanone]: the IC50 turned out to be 4 nM at human orexin-1 receptor (setting [1]), 3340 nM at human orexin-2 receptor (setting [2]) and 21000 nM on CYP3A4.

As to `O=C(c1ccccc1-n1nccn1)N1CCOC[C@H]1Cc1cc(F)cc(-n2nccn2)c1` [Example 145, [(R)-3-(3-Fluoro-5-[1,2,3]triazol-2-yl-benzyl)-morpholin-4-yl]-(2-[1,2,3]triazol-2-yl-phenyl)-methanone], the results for the IC50 at human orexin-1 receptor (setting [1]), at human orexin-2 receptor (setting [2]) and at CYP3A4 were 34 nM, 1510 nM and 22000 nM, respectively.

As for `COc1ccc(C[C@@H]2COCCN2C(=O)c2ccccc2-n2nccn2)cc1-c1ncon1` [Example 59, [(R)-3-(4-Methoxy-3-[1,2,4]oxadiazol-3-yl-benzyl)-morpholin-4-yl]-(2-[1,2,3]triazol-2-yl-phenyl)-methanone], the IC50 was 1 nM at human orexin-1 receptor (setting [1]), 80 nM at human orexin-2 receptor (setting [2]) and 32000 nM on CYP3A4.

Regarding `Cc1ccc(-n2nccn2)c(C(=O)N2CCOC[C@H]2Cc2cc(-n3cccn3)ccc2C)c1` [Example 188, [(R)-3-(2-Methyl-5-pyrazol-1-yl-benzyl)-morpholin-4-yl]-(5-methyl-2-[1,2,3]triazol-2-yl-phenyl)-methanone], the IC50 at human orexin-1 receptor (setting [1]) was 21 nM; at human orexin-2 receptor (setting [2]) it was 2130 nM; at CYP3A4, 14000 nM.

For `O=C(c1cc(F)ccc1-n1nccn1)N1CCOC[C@H]1Cc1cccc(-n2cccn2)c1` [Example 20, (5-Fluoro-2-[1,2,3]triazol-2-yl-phenyl)-[(R)-3-(3-pyrazol-1-yl-benzyl)-morpholin-4-yl]-methanone], the figures for the IC50 on human orexin-1 receptor (setting [1]), on human orexin-2 receptor (setting [2]) and at CYP3A4 were 25 nM, 1530 nM and 25000 nM, respectively.

For the molecule `O=C(c1cc(Cl)ccc1-n1nccn1)N1CCOC[C@H]1Cc1cc(-n2nccn2)ccc1F` [Example 129, (5-Chloro-2-[1,2,3]triazol-2-yl-phenyl)-[(R)-3-(2-fluoro-5-[1,2,3]triazol-2-yl-benzyl)-morpholin-4-yl]-methanone], the IC50 on human orexin-1 receptor (setting [1]) turned out to be 12 nM; on human orexin-2 receptor (setting [2]), 188 nM; on CYP3A4, 26000 nM.

For `Cc1ccc(C(=O)N2CCOC[C@H]2Cc2cc(F)cc(-n3nccn3)c2)c(-n2nccn2)c1` [Example 146, [(R)-3-(3-Fluoro-5-[1,2,3]triazol-2-yl-benzyl)-morpholin-4-yl]-(4-methyl-2-[1,2,3]triazol-2-yl-phenyl)-methanone], the results for the IC50 at human orexin-1 receptor, on human orexin-2 receptor (setting [2]) and on CYP3A4 were 3 nM, 282 nM and 40000 nM, respectively.

For the molecule `O=C(c1cccc(Cl)c1-n1nccn1)N1CCOC[C@H]1Cc1cc(-c2ncon2)ccc1F` [Example 180, (3-Chloro-2-[1,2,3]triazol-2-yl-phenyl)-[(R)-3-(2-fluoro-5-[1,2,4]oxadiazol-3-yl-benzyl)-morpholin-4-yl]-methanone], the IC50 on human orexin-1 receptor (setting [1]) came out at 19 nM; on human orexin-2 receptor (setting [2]), 830 nM; on CYP3A4, 36000 nM.

With `C[C@@H]1CN(C(=O)c2ccccc2-n2nccn2)[C@H](Cc2cccc(-c3ncccn3)c2)CO1` [Example 108, [(2R,5R)-2-Methyl-5-(3-pyrimidin-2-yl-benzyl)-morpholin-4-yl]-(2-[1,2,3]triazol-2-yl-phenyl)-methanone], the IC50 at human orexin-1 receptor (setting [1]) was determined as 10 nM; at human orexin-2 receptor (setting [2]), 855 nM; on CYP3A4, 46000 nM.

As to `O=C(c1cc(Cl)ccc1-n1nccn1)N1CCOC[C@H]1Cc1cc(-c2ncccn2)ccc1F` [Example 159, (5-Chloro-2-[1,2,3]triazol-2-yl-phenyl)-[(R)-3-(2-fluoro-5-pyrimidin-2-yl-benzyl)-morpholin-4-yl]-methanone], the values for the IC50 at human orexin-1 receptor (setting [1]), at human orexin-2 receptor (setting [2]) and on CYP3A4 were 6 nM, 490 nM and 17000 nM, respectively.

Take `Cc1cccc(C(=O)N2CCOC[C@H]2Cc2cc(-n3nccn3)ccc2F)c1-n1nccn1` [Example 127, [(R)-3-(2-Fluoro-5-[1,2,3]triazol-2-yl-benzyl)-morpholin-4-yl]-(3-methyl-2-[1,2,3]triazol-2-yl-phenyl)-methanone]: the IC50 at human orexin-1 receptor (setting [1]) was found to be 26 nM; at human orexin-2 receptor (setting [2]), 1500 nM; on CYP3A4 it was 30000 nM.

As for `Cc1ccc(C(=O)N2CCOC[C@H]2Cc2cccc(-n3nccn3)c2F)c(-n2nccn2)c1` [Example 183, [(R)-3-(2-Fluoro-3-[1,2,3]triazol-2-yl-benzyl)-morpholin-4-yl]-(4-methyl-2-[1,2,3]triazol-2-yl-phenyl)-methanone], the IC50 at human orexin-1 receptor is 15 nM; at human orexin-2 receptor, 2130 nM; at CYP3A4, > 50000 nM.

With `Cc1ccc(-n2nccn2)c(C(=O)N2CCOC[C@H]2Cc2cccc(-n3ccnn3)c2)c1` [Example 15, (5-Methyl-2-[1,2,3]triazol-2-yl-phenyl)-[(R)-3-(3-[1,2,3]triazol-1-yl-benzyl)-morpholin-4-yl]-methanone], the values for the IC50 at human orexin-1 receptor (setting [1]), on human orexin-2 receptor (setting [2]) and at CYP3A4 were 24 nM, 3160 nM and 14000 nM, respectively.

As to `Cc1ccc(C(=O)N2C[C@@H](C)OC[C@H]2Cc2cc(-c3cccnn3)ccc2F)c(-n2nccn2)c1` [Example 165, [(2R,5R)-5-(2-Fluoro-5-pyridazin-3-yl-benzyl)-2-methyl-morpholin-4-yl]-(4-methyl-2-[1,2,3]triazol-2-yl-phenyl)-methanone], the IC50 is 14 nM at human orexin-1 receptor (setting [1]), 1300 nM at human orexin-2 receptor (setting [2]) and 20000 nM at CYP3A4.

For the molecule `C[C@@H]1CN(C(=O)c2cc(Cl)ccc2-n2nccn2)[C@H](Cc2cccc(-n3nccn3)c2)CO1` [Example 184, (5-Chloro-2-[1,2,3]triazol-2-yl-phenyl)-[(2R,5R)-2-methyl-5-(3-[1,2,3]triazol-2-yl-benzyl)-morpholin-4-yl]-methanone], the IC50 stood at 2 nM at human orexin-1 receptor (setting [1]), 96 nM at human orexin-2 receptor (setting [2]) and 19000 nM on CYP3A4.

`Cc1ccc(C[C@@H]2COCCN2C(=O)c2ccccc2-n2nccn2)cc1-n1nccn1` [Example 66, [(R)-3-(4-Methyl-3-[1,2,3]triazol-2-yl-benzyl)-morpholin-4-yl]-(2-[1,2,3]triazol-2-yl-phenyl)-methanone]: the IC50 stood at 16 nM on human orexin-1 receptor (setting [1]), 992 nM at human orexin-2 receptor (setting [2]) and 36000 nM on CYP3A4.

In the case of `Cc1ccc(-n2nccn2)c(C(=O)N2CCOC[C@H]2Cc2cccc(-c3nccc(C)n3)c2)c1` [Example 39, {(R)-3-[3-(4-Methyl-pyrimidin-2-yl)-benzyl]-morpholin-4-yl}-(5-methyl-2-[1,2,3]triazol-2-yl-phenyl)-methanone], the IC50 on human orexin-1 receptor (setting [1]) was determined as 5 nM; on human orexin-2 receptor (setting [2]), 231 nM; on CYP3A4 it was 18000 nM.

As for `Cc1cccc(C(=O)N2C[C@@H](C)OC[C@H]2Cc2cccc(-c3ncccn3)c2)c1-n1nccn1` [Example 111, [(2R,5R)-2-Methyl-5-(3-pyrimidin-2-yl-benzyl)-morpholin-4-yl]-(3-methyl-2-[1,2,3]triazol-2-yl-phenyl)-methanone], the figures for the IC50 at human orexin-1 receptor (setting [1]), on human orexin-2 receptor (setting [2]) and at CYP3A4 were 7 nM, 983 nM and 40000 nM, respectively.

Consider `C[C@@H]1CN(C(=O)c2cc(Cl)ccc2-n2nccn2)[C@H](Cc2cccc(-c3ncccn3)c2)CO1` [Example 113, (5-Chloro-2-[1,2,3]triazol-2-yl-phenyl)-[(2R,5R)-2-methyl-5-(3-pyrimidin-2-yl-benzyl)-morpholin-4-yl]-methanone], for which the IC50 at human orexin-1 receptor (setting [1]) amounted to 2 nM; on human orexin-2 receptor (setting [2]) it was 110 nM; on CYP3A4 it was 26000 nM.

Regarding `Cc1ccc(C(=O)N2CCOC[C@H]2Cc2cc(-n3nccn3)ccc2Cl)c(-n2nccn2)c1C` [Example 169, [(R)-3-(2-Chloro-5-[1,2,3]triazol-2-yl-benzyl)-morpholin-4-yl]-(3,4-dimethyl-2-[1,2,3]triazol-2-yl-phenyl)-methanone], the figures for the half-maximal inhibitory concentration (IC50) at human orexin-1 receptor (setting [1]), on human orexin-2 receptor (setting [2]) and at CYP3A4 were 5 nM, 2440 nM and 29000 nM, respectively.

As for `Cc1ccc(-n2nccn2)c(C(=O)N2CCOC[C@H]2Cc2cc(-n3nccn3)ccc2C)c1` [Example 119, [(R)-3-(2-Methyl-5-[1,2,3]triazol-2-yl-benzyl)-morpholin-4-yl]-(5-methyl-2-[1,2,3]triazol-2-yl-phenyl)-methanone], the IC50 at human orexin-1 receptor (setting [1]) was determined as 6 nM; on human orexin-2 receptor (setting [2]), 593 nM; at CYP3A4 it was 19000 nM.

As to `O=C(c1cc(F)ccc1-n1nccn1)N1CCOC[C@H]1Cc1cccc(-n2nccn2)c1` [Example 26, (5-Fluoro-2-[1,2,3]triazol-2-yl-phenyl)-[(R)-3-(3-[1,2,3]triazol-2-yl-benzyl)-morpholin-4-yl]-methanone], the IC50 at human orexin-1 receptor (setting [1]) was 21 nM; at human orexin-2 receptor (setting [2]), 822 nM; on CYP3A4, 24000 nM.

The record behind these values is patent US9150566B2, “2-(1,2,3-triazol-2-yl)benzamide and 3-(1,2,3-triazol-2-YL)picolinamide derivatives as orexin receptor antagonists” (ACTELION PHARMACEUTICALS LTD., priority 2011, dated 2015).
